The source of these data is ChEMBL document CHEMBL1201862, “PubChem BioAssay data set” (2004).

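Assay format: 96-well plates, 48-hour exposure. GI50: concentration for 50% inhibition of growth.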 Calls of active or inactive are those of the source. No stated cut-off is given here; in the data, active = GI50 up to about 1.1 µM and inactive = higher. Some results are limits rather than exact numbers.

Some test systems named below: 786-0; CAKI-1; CCRF-CEM; EKVX; HCT-116; HCT-15; HOP-62; HT-29; IGROV-1; K562; MDA-MB-435; NCI-H460; OVCAR-4; OVCAR-5; SF-295; SNB-75; SR; T47D; U-251; NCI-H522.
Common to all, as to experiment: NCI anticancer screen, dose series, 48 h

On to `CCCCOCOc1ccccc1P1(=O)COc2ccccc2OC1`, for which the GI50 in the assay with 786-0 was > 100 µM (inactive); in the assay on CAKI-1 it was > 100 µM (inactive); with CCRF-CEM, > 100 µM (inactive); in the assay on EKVX it was > 100 µM (inactive); in the assay with HCT-116, 62.5 µM (inactive); in the assay on HCT-15 it was 87.1 µM. Also, the GI50 in the assay on HOP-62 was > 100 µM (inactive); in the assay with HT-29, > 100 µM (inactive); in the assay on IGROV-1, > 100 µM (inactive); in the assay on K562 it was 52.2 µM (inactive); in the assay with MDA-MB-435, > 100 µM (inactive); in the assay on NCI-H460, 58.3 µM (inactive). For the same compound, the GI50 in the assay on OVCAR-4 is 42.2 µM (inactive); in the assay on OVCAR-5, > 100 µM (inactive); with SF-295, 60.5 µM (inactive); in the assay on SNB-75 it was > 100 µM (inactive); with SR, 37.1 µM (inactive); with T47D, 45.4 µM (inactive). The GI50 in the assay on U-251 is > 100 µM (inactive).
For `C[N+](C)(C)C1(C(=O)[O-])CC1`, the GI50 in the assay with 786-0 is > 100 µM (inactive); in the assay with CCRF-CEM, > 100 µM (inactive); with EKVX, > 100 µM (inactive); in the assay on HCT-116 it was > 100 µM (inactive); in the assay on HCT-15, greater than 100 µM; in the assay on HOP-62, > 100 µM (inactive). For the same compound, the GI50 in the assay on HT-29, in the assay on IGROV-1, in the assay with K562, in the assay with MDA-MB-435, in the assay on NCI-H460 and in the assay with NCI-H522 was > 100 µM (inactive) in each case. Besides, the GI50 in the assay with OVCAR-4 is > 100 µM (inactive); in the assay with OVCAR-5 it was > 100 µM (inactive); in the assay with SF-295, > 100 µM (inactive); with SNB-75, > 100 µM (inactive); in the assay with SR it was > 100 µM (inactive); in the assay on T47D, 72.1 µM (inactive). In the assay with U-251, the GI50 is > 100 µM (inactive).
Take `Cc1nnc(CC#N)n1NC(=O)CC#N`: the GI50 was > 100 µM (inactive) in the assay on 786-0; > 100 µM (inactive) in the assay on CAKI-1; > 100 µM (inactive) with CCRF-CEM; > 100 µM (inactive) in the assay on EKVX; > 100 µM (inactive) in the assay with HCT-116; greater than 100 µM in the assay on HCT-15. For the same compound, the GI50 in the assay on HOP-62, in the assay with HT-29, in the assay on IGROV-1, in the assay with K562, in the assay with MDA-MB-435 and in the assay with NCI-H460 was > 100 µM (inactive) each time. Further, the GI50 with NCI-H522, in the assay with OVCAR-5, in the assay on SF-295, with SNB-75, with SR and with T47D was > 100 µM (inactive) in each case. The GI50 with U-251 is > 100 µM (inactive).
Consider `Cn1c2ccccc2c(=S)c2ccccc21`, for which the GI50 in the assay with 786-0 was > 100 µM (inactive); in the assay with CAKI-1, > 100 µM (inactive); in the assay with CCRF-CEM, > 100 µM (inactive); in the assay on EKVX, > 100 µM (inactive); in the assay with HCT-116, > 100 µM (inactive); in the assay with HCT-15, greater than 100 µM. Moreover, the GI50 with HOP-62, in the assay on HT-29, in the assay on IGROV-1, in the assay on K562, in the assay on MDA-MB-435 and with NCI-H460 was > 100 µM (inactive) in each case. Moreover, the GI50 in the assay on NCI-H522, in the assay with OVCAR-5, with SF-295, in the assay on SNB-75, with SR and with T47D was > 100 µM (inactive) in each case. Moreover, in the assay with U-251, the GI50 is > 100 µM (inactive).
Consider `CCOC(=O)/C=C(/N=P(c1ccccc1)(c1ccccc1)c1ccccc1)C(F)(F)F`, for which the GI50 is > 10 µM (inactive) with 786-0; > 10 µM (inactive) in the assay on CCRF-CEM; > 10 µM (inactive) in the assay on EKVX; > 10 µM (inactive) in the assay with HCT-116; greater than 10 µM with HCT-15; > 10 µM (inactive) in the assay with HOP-62. Besides, the GI50 in the assay on HT-29 is > 10 µM (inactive); in the assay on IGROV-1, > 10 µM (inactive); in the assay on K562, > 10 µM (inactive); in the assay on MDA-MB-435 it was > 10 µM (inactive); with NCI-H460, > 10 µM (inactive); in the assay with NCI-H522, 61.9 µM (inactive). Moreover, the GI50 was > 10 µM (inactive) in the assay on OVCAR-4; > 10 µM (inactive) with OVCAR-5; > 10 µM (inactive) in the assay on SF-295; > 10 µM (inactive) in the assay with SNB-75; > 10 µM (inactive) in the assay on SR; 22.1 µM (inactive) with T47D.
For the compound `c1ccc2/c3[nH]/c(c2c1)=N\c1ccc(cc1)-c1nc2ccc(cc2o1)/N=c1/[nH]/c(c2ccccc12)=N/c1ccc2nc(oc2c1)-c1ccc(cc1)\N=3`, the GI50 in the assay on 786-0 was 31 µM (inactive); in the assay on CAKI-1, 35.4 µM (inactive); with CCRF-CEM, 2.26 µM (inactive); with EKVX, 45.6 µM (inactive); in the assay with HCT-116 it was 32.8 µM (inactive); in the assay on HCT-15, 3.1 µM. Also, the GI50 in the assay on HOP-62 was 62.4 µM (inactive); in the assay on HT-29, 33.4 µM (inactive); in the assay on IGROV-1 it was 47.2 µM (inactive); in the assay with K562, 15.8 µM (inactive); in the assay on MDA-MB-435, 27.6 µM (inactive); in the assay with NCI-H460, 7.38 µM (inactive). The GI50 in the assay with NCI-H522 is 43.8 µM (inactive); with OVCAR-5, > 100 µM (inactive); in the assay with SF-295 it was 31 µM (inactive); in the assay on SNB-75 it was > 100 µM (inactive); with SR it was 20.3 µM (inactive); in the assay on T47D, 25.2 µM (inactive). Moreover, the GI50 in the assay on U-251 is 20.1 µM (inactive).
Take `O=C1C(Cl)=C(Oc2ccc([N+](=O)[O-])cc2)C(=O)c2c(O)ccc(O)c21`: the GI50 in the assay with 786-0 is 67.9 µM (inactive); in the assay on CCRF-CEM, 2.12 µM (inactive); with EKVX it was > 100 µM (inactive); in the assay with HCT-116, 49.3 µM (inactive); in the assay with HCT-15, 25.6 µM; in the assay with HOP-62 it was > 100 µM (inactive). Also, the GI50 is 33.9 µM (inactive) in the assay with HT-29; > 100 µM (inactive) in the assay on IGROV-1; 13.3 µM (inactive) in the assay on K562; > 47.5 µM (inactive) in the assay on MDA-MB-435; > 100 µM (inactive) in the assay with NCI-H460; 19.2 µM (inactive) in the assay on NCI-H522. Besides, the GI50 was 51.8 µM (inactive) in the assay on OVCAR-4; > 100 µM (inactive) in the assay on OVCAR-5; > 100 µM (inactive) in the assay with SF-295; > 100 µM (inactive) in the assay on SNB-75; 3.78 µM (inactive) in the assay on SR; 29.9 µM (inactive) with T47D. Further, the GI50 with U-251 was > 100 µM (inactive).
Take `COc1ccc(/C(Cl)=C(\C=O)c2ccc([N+](=O)[O-])cc2)cc1OC`: the GI50 is 4.29 µM (inactive) in the assay on 786-0; 9.08 µM (inactive) with CAKI-1; 2.44 µM (inactive) in the assay on CCRF-CEM; > 33.3 µM (inactive) in the assay on EKVX; 6.15 µM (inactive) in the assay with HCT-116; 5 µM in the assay on HCT-15. Besides, the GI50 is 22.7 µM (inactive) in the assay on HOP-62; 14.2 µM (inactive) in the assay with HT-29; 17.3 µM (inactive) in the assay with IGROV-1; 3.62 µM (inactive) with K562; 3.24 µM (inactive) with MDA-MB-435; 9.27 µM (inactive) in the assay with NCI-H460. In addition, the GI50 with NCI-H522 is 4.07 µM (inactive); in the assay on OVCAR-5, 5.13 µM (inactive); in the assay with SF-295, 13.4 µM (inactive); in the assay on SNB-75 it was 3.62 µM (inactive); in the assay on SR, 3.03 µM (inactive); in the assay with T47D, 6.9 µM (inactive). The GI50 with U-251 was 6.32 µM (inactive).
